From ChEMBL document CHEMBL3301472, “MMV Malaria Box HIV and cytotoxicity screening”

Columns and labels:
[1] = MMV: MTT Cytotoxicity Assay Day 7 pi of Assay #10 (NO washout), U87-CD4-CCR5 cells, % cell death @ 5mM compound; type: toxicity, cell-based; details: human, u87-cd4-ccr5, 5000 µM
[2] = MMV: MTT Cytotoxicity Assay Day 7 pi of Assay #11 (NO washout), U87-CD4-CXCR4 cells, % cell death @ 5mM compound; type: toxicity, cell-based; details: human, u87-cd4-cxcr4, 5000 µM
[3] = MMV: MTT Cytotoxicity Assay Day 7 pi of Assay #7 (compound washed out Day 1 pi), U87-CD4-CXCR4 cells, % cell death @ 5mM compound; type: toxicity, cell-based; details: human, u87-cd4-cxcr4, 5000 µM
[4] = system: Human immunodeficiency virus 1; assay: MMV: HIV CXCR4-tropic env HxB2 pseudovirus assay produces luciferase signal in lieu of replicating viral particles Day 3 pi, U87-CD4-CXCR4, % inhibition at 5 mM compound; type: functional; set-up: dose or concentration left out as unconfirmed; details: Human immunodeficiency virus 1, HxB2, U87.CD4.CXCR4, 72 h
[5] = MMV: MTT Cytotoxicity Assay Day 3 pi, U87-CD4-CCR5 cells, % cell death @ 5mM compound; type: toxicity, cell-based; details: human, u87-cd4-ccr5, 5000 µM
[6] = system: Human immunodeficiency virus 1; assay: MMV: HIV CXCR4-tropic env NL4-3 pseudovirus assay produces luciferase signal in lieu of replicating viral particles Day 3 pi, U87-CD4-CXCR4, % inhibition at 5 mM compound; type: functional; set-up: dose or concentration left out as unconfirmed; details: Human immunodeficiency virus 1, NL4-3, U87.CD4.CXCR4, 72 h
[7] = MMV: MTT Cytotoxicity Assay Day 3 pi, U87-CD4-CXCR4 cells, % cell death @ 5mM compound; type: toxicity, cell-based; details: human, u87-cd4-cxcr4, 5000 µM
[8] = MMV: MTT Cytotoxicity Assay Day 7 pi of Assay #6 (compound washed out Day 1 pi), U87-CD4-CCR5 cells, % cell death @ 5mM compound; type: toxicity, cell-based; details: human, u87-cd4-ccr5, 5000 µM
[9] = system: Human immunodeficiency virus 1; assay: MMV: HIV NL4-3 CXCR4-tropic replication-competent virus, virus & compound washed out Day 1 pi, P24 ELISA Day 7 pi, U87-CD4-CXCR4, % inhibition at 5 mM compound; type: functional; set-up: dose or concentration left out as unconfirmed; details: Human immunodeficiency virus 1, NL4-3, U87.CD4.CXCR4
[10] = system: Human immunodeficiency virus 1; assay: MMV: HIV JRFL CCR5-tropic replication-competent virus, virus & compound washed out Day 1 pi, P24 ELISA Day 7 pi, U87-CD4-CCR5, % inhibition at 5 mM compound; type: functional; set-up: dose or concentration left out as unconfirmed; details: Human immunodeficiency virus 1, JR-FL

Structure (SMILES): CC(C)(C)CC(C)(C)NCC(O)COc1ccc2c(c1)CCC2.Cl (stereo not given)
- % Cell Death [1]: -10
- % Cell Death [2]: 7
- % Cell Death [3]: -11
- inhibition [4]: 4%
- % Cell Death [5]: -4
- inhibition [6]: -1%
- % Cell Death [7]: 10
- % Cell Death [8]: 2

Structure (SMILES): c1ccc(-c2ccc(-c3nc4ccccc4[nH]3)cc2)cc1
- % Cell Death [1]: 11
- % Cell Death [2]: 70
- % Cell Death [3]: -19
- % Cell Death [5]: 12
- % Cell Death [7]: 6
- % Cell Death [8]: 16
- inhibition [9]: -1%

Structure (SMILES): OC(CNC1CCCCC1)Cn1c2ccc(I)cc2c2cc(I)ccc21 (stereo not given)
- % Cell Death [1]: -2
- % Cell Death [2]: 26
- % Cell Death [3]: -9
- inhibition [4]: 3%
- % Cell Death [5]: 27
- % Cell Death [7]: 25
- % Cell Death [8]: 3
- inhibition [10]: 3%

Structure (SMILES): CCN(CC)CCNc1ccnc2cc3ccccc3cc12.O=P(O)(O)O
- % Cell Death [1]: 10
- % Cell Death [2]: -36
- % Cell Death [3]: -15
- % Cell Death [5]: 33
- % Cell Death [7]: 28
- % Cell Death [8]: -26
- inhibition [10]: 9%
- inhibition [9]: -1%

Structure (SMILES): OC(Cn1nnc2ccccc21)Cn1c2ccc(Br)cc2c2cc(Br)ccc21 (stereo not given)
- % Cell Death [1]: 27
- % Cell Death [2]: 18
- % Cell Death [3]: 8
- % Cell Death [5]: 15
- % Cell Death [7]: -29
- % Cell Death [8]: 2
- inhibition [10]: -2%
- inhibition [9]: 1%

Structure (SMILES): CCOc1cc(Cl)c(C(C)NC(=O)c2ccccc2)cc1OCC (stereo not given)
- % Cell Death [1]: 15
- % Cell Death [2]: 90
- % Cell Death [3]: -6
- % Cell Death [5]: 28
- % Cell Death [7]: 34
- % Cell Death [8]: -4
- inhibition [10]: 0%
- inhibition [9]: 1%

Structure (SMILES): O=C(Nc1ccccc1O)c1ccc(Oc2cccc(C(=O)Nc3ccccc3O)c2)cc1
- % Cell Death [1]: 28
- % Cell Death [2]: -20
- % Cell Death [3]: -12
- % Cell Death [5]: 43
- % Cell Death [7]: 4
- % Cell Death [8]: 17
- inhibition [9]: 0%

Structure (SMILES): CCOc1cc2c(cc1OCC)C(c1cc(Cl)c(O)c(OCC)c1)NCC2 (stereo not given)
- % Cell Death [1]: 21
- % Cell Death [2]: 38
- % Cell Death [3]: -20
- % Cell Death [5]: -45
- % Cell Death [7]: 15
- % Cell Death [8]: 8
- inhibition [9]: 3%

Structure (SMILES): COc1ccc(-c2cc3c(SCC(=O)Nc4cc(C(F)(F)F)ccc4Cl)nccn3n2)cc1
- % Cell Death [1]: 18
- % Cell Death [2]: 13
- % Cell Death [3]: -22
- inhibition [4]: 6%
- % Cell Death [5]: 24
- % Cell Death [7]: 41
- % Cell Death [8]: 5

Structure (SMILES): Oc1c(CN2CCN(c3ccccc3F)CC2)cc(Br)c2cccnc12
- % Cell Death [1]: 92
- % Cell Death [2]: 34
- % Cell Death [3]: 51
- inhibition [4]: 1%
- % Cell Death [5]: 43
- % Cell Death [7]: 51
- % Cell Death [8]: 53

Structure (SMILES): CCOC(=O)C1=C(C)N=c2sc(=Cc3ccccc3O)c(=O)n2C1c1ccc(OC)c2ccccc12 (stereo not given)
- % Cell Death [1]: 90
- % Cell Death [2]: 113
- % Cell Death [3]: 66
- inhibition [4]: -1%
- % Cell Death [5]: 105
- % Cell Death [7]: 42
- % Cell Death [8]: 40

Structure (SMILES): Cc1cc(NCCN2CCCCC2)c2ccc3ccccc3c2n1
- % Cell Death [1]: 31
- % Cell Death [2]: 5
- % Cell Death [3]: 16
- inhibition [4]: 1%
- % Cell Death [5]: 64
- % Cell Death [7]: 34
- % Cell Death [8]: 30

Structure (SMILES): O=[N+]([O-])c1ccc(C=NNc2nc3ccccc3[nH]2)cc1
- % Cell Death [1]: 38
- % Cell Death [2]: 22
- % Cell Death [3]: -15
- % Cell Death [5]: 32
- % Cell Death [7]: 6
- % Cell Death [8]: 28
- inhibition [9]: 0%

Structure (SMILES): COc1ccc(C(=O)Nc2ccc3nc(N4CCCCC4)cc(C)c3c2)cc1OC
- % Cell Death [1]: 91
- % Cell Death [2]: 106
- % Cell Death [3]: 16
- % Cell Death [5]: 108
- % Cell Death [7]: 23
- % Cell Death [8]: 78
- inhibition [9]: 5%

Structure (SMILES): O=C(NCc1ccco1)C1CCN(S(=O)(=O)c2ccc(Br)cc2)CC1
- % Cell Death [1]: -12
- % Cell Death [2]: -5
- % Cell Death [3]: -9
- inhibition [4]: 8%
- % Cell Death [5]: 14
- % Cell Death [7]: 32
- % Cell Death [8]: 5

Structure (SMILES): CCOc1ccc(Nc2c3ccccc3nc3ccccc23)cc1.Cl
- % Cell Death [1]: 43
- % Cell Death [2]: 95
- % Cell Death [3]: 42
- inhibition [4]: 5%
- % Cell Death [5]: 47
- inhibition [6]: 2%
- % Cell Death [7]: 1
- % Cell Death [8]: 34

Structure (SMILES): COc1cc(C(=O)Nc2nc3c(cc4c5c(cccc53)CC4)s2)cc(OC)c1OC
- % Cell Death [1]: 136
- % Cell Death [2]: 110
- % Cell Death [3]: 68
- inhibition [4]: 0%
- % Cell Death [5]: 105
- % Cell Death [7]: 56
- % Cell Death [8]: 42

Structure (SMILES): O=C(O)C1Cc2c([nH]c3ccccc23)C(c2ccc(Cl)cc2Cl)N1 (stereo not given)
- % Cell Death [1]: 27
- % Cell Death [2]: -2
- % Cell Death [3]: -34
- % Cell Death [5]: 10
- % Cell Death [7]: 11
- % Cell Death [8]: 15
- inhibition [9]: 0%

Structure (SMILES): Cc1ccc(C2CC(C(F)(F)F)n3nc(C(=O)N4CCN(C(c5ccccc5)c5ccccc5)CC4)cc3N2)cc1 (stereo not given)
- % Cell Death [1]: 75
- % Cell Death [2]: 58
- % Cell Death [3]: 62
- inhibition [4]: 5%
- % Cell Death [5]: 86
- % Cell Death [7]: 64
- % Cell Death [8]: 77

Structure (SMILES): COc1ccc(-c2nc3cc(Cc4ccc5[nH]c(-c6ccc(OC)cc6)nc5c4)ccc3[nH]2)cc1
- % Cell Death [1]: 4
- % Cell Death [2]: 6
- % Cell Death [3]: -21
- inhibition [4]: 1%
- % Cell Death [5]: -6
- % Cell Death [7]: 23
- % Cell Death [8]: -21

Structure (SMILES): CCC1(C)CC(CCNCc2ccccc2O)(c2ccc(C)cc2)CCO1 (stereo not given)
- % Cell Death [1]: 27
- % Cell Death [2]: 19
- % Cell Death [3]: 0
- inhibition [4]: 0%
- % Cell Death [5]: -22
- % Cell Death [7]: 14
- % Cell Death [8]: 9

Structure (SMILES): CCCc1c(C)nc2ccc(Br)cc2c1O
- % Cell Death [1]: 25
- % Cell Death [2]: 27
- % Cell Death [3]: 7
- % Cell Death [5]: 4
- % Cell Death [7]: 29
- % Cell Death [8]: -7
- inhibition [9]: 5%

Structure (SMILES): COc1ccc2c(=O)cc(C(Cl)(Cl)Cl)oc2c1
- % Cell Death [1]: 100
- % Cell Death [2]: 95
- % Cell Death [3]: 23
- inhibition [4]: 8%
- % Cell Death [5]: 90
- % Cell Death [7]: 41
- % Cell Death [8]: 23

Structure (SMILES): CCCCCCC(O)(c1ccc(F)cc1)C(CN1CCOCC1)c1ccccc1.Cl (stereo not given)
- % Cell Death [1]: -2
- % Cell Death [2]: -35
- % Cell Death [3]: -17
- % Cell Death [5]: 13
- % Cell Death [7]: 12
- % Cell Death [8]: 3
- inhibition [9]: 8%

Structure (SMILES): C=CCc1c(C)nc2ccccc2c1O
- % Cell Death [1]: 109
- % Cell Death [2]: 50
- % Cell Death [3]: 38
- % Cell Death [5]: 4
- % Cell Death [7]: 36
- % Cell Death [8]: -8
- inhibition [9]: 4%

Structure (SMILES): O=C(CCc1ccco1)NC1CCN(CC2(c3ccc(Cl)cc3)CCC2)CC1
- % Cell Death [1]: 109
- % Cell Death [2]: 97
- % Cell Death [3]: 24
- % Cell Death [5]: 18
- % Cell Death [7]: 38
- % Cell Death [8]: 2
- inhibition [9]: 1%

Structure (SMILES): COC(=O)c1ccc(C2C3=C(O)CC(c4ccc(F)cc4)CC3=Nc3ccccc3N2C(=O)c2ccccc2)cc1 (stereo not given)
- % Cell Death [1]: 18
- % Cell Death [2]: -29
- % Cell Death [3]: 12
- % Cell Death [5]: -1
- % Cell Death [7]: 33
- % Cell Death [8]: 39
- inhibition [9]: -1%

Structure (SMILES): CCc1ccc(Nc2cc(C)nc3nc(C)nn23)cc1
- % Cell Death [1]: 50
- % Cell Death [2]: 93
- % Cell Death [3]: 4
- inhibition [4]: 6%
- % Cell Death [5]: 23
- % Cell Death [7]: 46
- % Cell Death [8]: 4

Structure (SMILES): Cc1cccc(N2C(=O)C3C(C2=O)C2(c4ccccc4)C(=O)C3(c3ccccc3)C(c3ccc4c(c3)OCO4)=C2c2ccc3c(c2)OCO3)c1 (stereo not given)
- % Cell Death [1]: 0
- % Cell Death [2]: -20
- % Cell Death [3]: -2
- % Cell Death [5]: 4
- % Cell Death [7]: 35
- % Cell Death [8]: 4
- inhibition [9]: 3%

Structure (SMILES): CC(C)(C)c1ccc(C(=O)Nc2c3c(nn2-c2cccc(Cl)c2)CSC3)cc1
- % Cell Death [1]: 7
- % Cell Death [2]: 1
- % Cell Death [3]: -2
- % Cell Death [5]: 7
- % Cell Death [7]: -37
- % Cell Death [8]: 2
- inhibition [9]: 7%

Structure (SMILES): O=C(Nc1nc(-c2ccccn2)cs1)c1ccccc1Br
- % Cell Death [1]: 118
- % Cell Death [2]: 85
- % Cell Death [3]: -6
- % Cell Death [5]: -1
- % Cell Death [7]: 28
- % Cell Death [8]: -13
- inhibition [9]: 4%

Structure (SMILES): CCOC(=O)c1cnc2ccc(OC)cc2c1NCc1ccccc1
- % Cell Death [1]: -9
- % Cell Death [2]: 46
- % Cell Death [3]: 12
- inhibition [4]: -2%
- % Cell Death [5]: -52
- % Cell Death [7]: 36
- % Cell Death [8]: -10
